These results are taken from patent US10035806B2, “Derivatized corroles and metallocorroles and their use as imaging and therapeutic agents” (CALIFORNIA INSTITUTE OF TECHNOLOGY, priority 2015, dated 2018).

One may read the IC50 as the concentration at which inhibition is half-maximal.

Each structure is given as a SMILES string. Values joined by “and” are separate entries in the source; they are usually repeats but may differ in a detail not shown here. Equal entries are not always repeated.

The subject of one data set is DU-145. The data set can be described thus: MTS assay (cytotoxicity). It counts as cell-based, human. The note with it: for IC50: DU-145 (prostate), 72 h exposure in the dark, MTS assay, mean of three experiments. An excerpt: (§1) Reagents were obtained from the indicated suppliers: HBSS without phenol red and trypsin-EDTA (0.25%), Invitrogen/Gibco; PBS, Mediatech; 4′,6-diamidino-2-phenylindole dihydrochloride (DAPI) and DMSO, Sigma-Aldrich; paraformaldehyde, Electron Microscopy Sciences; WGA, Alexa Fluor 488 conjugate, Invitrogen/Molecular Probes; and ProLong Gold Antifade Mountant with DAPI, Life Technologies. Human Cancer Cell Lines. Four cell lines from the NCI60 cell panel (Shoemaker RH (2006) The NCI60 human tumour cell line anticancer drug screen. Nat Rev Cancer 6(10):813-823) representing four distinct tumor types were used in this study: DU-145, prostate; MDA-MB-231, breast; SK-MEL-28, melanoma; and OVCAR-3, ovarian. Cells were grown in RPMI 1640 cell culture medium (Mediatech) containing 2 mM L-glutamine, supplemented with 10% FBS (Omega Scientific), and maintained at 37° C. under 5% CO2 in a humidified incubator.
(§2) At the time of drug treatment, stock solutions of 1-4 were diluted to 10-fold the desired final test concentrations with RPMI medium 1640. Aliquots of […] of these diluted solutions were added to the appropriate microtiter wells containing 90 μL of medium, resulting in the required final drug concentrations (eight concentrations per compound, ranging from 0.3 to 600 μM). The final concentration of DMSO in test culture was <1%. […] Following 72 h of exposure at 37° C., cell viability was determined using the MTS assay (CellTiter 96 Aqueous One Cell Proliferation Assay; Promega) according to the manufacturer's instructions. Absorbances were measured using a microplate reader (Synergy 4; Biotek Instruments) at 490 nm. Experiments were performed in triplicate and each dose-response curve represents the mean of three or more independent experiments. Spectrophotometric data were analyzed by sigmoid dose-response, nonlinear regression analysis; the IC50, Emax values, and associated SE were calculated using GraphPad Prism 6 (GraphPad Software).
(§3) The effects of bis-sulfonate, carboxylate, and aminocaproate ring substituents on gallium corrole cytotoxicities were examined using four human cancer cell lines, representing tumors of different origin selected based on previously described sensitivities.

The next data set deals with MDA-MB-231. The data set can be described thus: MTS assay (cytotoxicity). It counts as cell-based, human. Conditions: MDA-MB-231 (breast), 72 h exposure in the dark, mean of three experiments.
From the text: as §1, §2, §3
(In general: Tetrazolium assays rely on reduction of a dye to a coloured formazan, in cell work by metabolically active cells.)

In the next data set the test system is OVCAR-3. The data set can be described thus: MTS assay (cytotoxicity). It counts as cell-based, human. The note with it: OVCAR-3 (ovarian), 72 h exposure in the dark, mean of three experiments.
From the text: as §1, §2, §3

The subject of the next data set is SK-MEL-28. The data set can be described thus: MTS assay (cytotoxicity). The note with it: SK-MEL-28 (melanoma), 72 h exposure in the dark, mean of three experiments. It is filed as cell-based, human.
From the text: as §1, §2, §3

Data set [1] has as its system DU-145, SK-MEL-28, MDA-MB-231, OVCAR-3. The data set can be described thus: Uptake of gallium corroles (ImageXpress confocal), cell lines taken together. It counts as cell-based, human. The note with it: 30 μM. The method, then:
The intracellular uptake of gallium corroles was quantified using the ImageXpressultra laser point-scanning confocal microscope (Molecular Devices). The fluorescence image acquisition settings were as previously reported (Lim P, et al. (2012), Chem Res Toxicol 25(2):400-409.). Cells (DU-145, SK-MEL-28, MDA-MB-231, and OVCAR-3) were seeded in 96-well dishes (8×10^3 cells per well in 0.1 mL) and allowed to attach overnight. Complex 1, 2, 3, or 4 was added directly to cell media at 30 μM final concentration or media only control, and incubated for 0.25, 1, 3, or 24 h at 37° C. in the dark under a 5% CO2 atmosphere. Cells were fixed and labeled in situ with WGA-Alexa Fluor 488 conjugate and DAPI to allow for the identification of cell boundary and nucleus, respectively. The quantification of blue (DAPI) fluorescence signals in each sample yielded the total number of cells in that population. Corresponding determination of red (corrole) fluorescence within each cell, corrected for background fluorescence from untreated cells, provided the number of cells containing corroles. For each corrole concentration at various time points, fluorescence data were obtained for 1,000-22,000 individual cells. Data acquisitions and analyses were performed as described (Lim P, et al. (2012), Chem Res Toxicol 25(2):400-409). The percentage of corrole-positive cells and the median fluorescence intensity (median RFU) for each treatment were plotted in a three-axis graph using Microsoft Office Excel 2007 (Microsoft Corporation).
To quantify the kinetics of intracellular uptake and accumulation of each derivative, ImageXpressultra, a laser point-scanning confocal microscope, was used for analyses. […] Cells were incubated at 37° C. in the dark for 0.25, 1, 3, or 24 h. […] Within 15 min, Complex 4 fluorescence was observable in ˜80% of ovarian cancer cells, 97% of breast cancer cells, and >99% of prostate cancer and melanoma cells, whereas up to 3 and 24 h were required to label >80% of cells from all four cancer lines with Complexes 3 and 2, respectively. […]

For a further data set, the system named is human cancer cells. Conditions: previous work, cited from earlier work.
In a further data set the test system is murine model animals. The note with it: previous work; cited from earlier work.
A further data set concerns MDA-MB-231 cells. The note with it: literature values, read-out: IC50 reported for cisplatin; cited from earlier work.

Take `Fc1c(F)c(F)c(C2=C3C=CC4=[N+]3[Ga-]35[n]6c2ccc6C(c2c(F)c(F)c(F)c(F)c2F)=c2ccc([n]23)=C(c2c(F)c(F)c(F)c(F)c2F)c2ccc4[n]25)c(F)c1F` (stereo not shown) [Complex 1, gallium(III) tris(pentafluorophenyl)corrole]: the IC50 in the data set on DU-145 turned out to be 135 µM; in the data set with MDA-MB-231, 101 µM; with OVCAR-3 it was 58.1 µM; with SK-MEL-28, 61.3 µM. Besides, the “time required for significant uptake (≥80% cells)” value in data set [1] (melanoma, ovarian, and breast cancer cell lines) worked out at 24 h.

As for `O=S(=O)(O)C1=CC2=C(c3c(F)c(F)c(F)c(F)c3F)c3ccc4[n]3[Ga-]35[n]6c(cc(S(=O)(=O)O)c6C(c6c(F)c(F)c(F)c(F)c6F)=c6ccc([n]63)=C4c3c(F)c(F)c(F)c(F)c3F)C1=[N+]25` (stereo not shown) [Complex 2], the IC50 with DU-145 turned out to be 159 µM; with DU-145 (listed as 2) it was 159 µM; in the data set with MDA-MB-231, 129 µM; in the data set on OVCAR-3, 274 µM; in the data set with SK-MEL-28, 131 µM. Also, the “time required to label >80% of cells from all four cancer lines” value in data set [1] (37° C., dark) is at most 24 h. The “antitumor activity in vitro” value in the data set on human cancer cells (human cancer cells) is reported as “potent antitumor activity”. The “mechanism of cytotoxicity: cell cycle effect” value in the data set with human cancer cells (numerous cancer cell lines in vitro) is “induce cell cycle arrest at late M phase”. The “antitumor activity in vivo” value with murine model animals is recorded as “potent antitumor activity”.

On to `O=C(O)C1=CC2=[N+]3C1=C(c1c(F)c(F)c(F)c(F)c1F)c1ccc4[n]1[Ga-]31[n]3c(ccc32)C(c2c(F)c(F)c(F)c(F)c2F)=c2ccc([n]21)=C4c1c(F)c(F)c(F)c(F)c1F` (stereo not shown) [Complex 4], for which the IC50 with DU-145 was 12.9 µM; with MDA-MB-231, 15.3 µM; with OVCAR-3, 11.1 µM; in the data set with SK-MEL-28, 4.8 µM. For the same compound, the “IC50 lower than bis-sulfonated Complex 2” value in the data set with DU-145 (DU-145, 72 h, MTS) is reported as −12 fold.

Take `COc1ccc(C2=c3ccc4[n]3[Mn-]35[n]6c(ccc62)C(c2cc[n+](C)cc2)=C2C=CC(=[N+]23)c2ccc([n]25)C=4c2cc[n+](C)cc2)cc1` (stereo not shown) [Complex 5]: in the data set with human cancer cells, the “effect of pyridinium substitution (in place of bis-sulfonic acids) on uptake, activity, toxicity” value was “improve uptake and activity”.

Turning to `C[n+]1ccccc1C1=C2C=CC3=[N+]2[Mn-]24[n]5c1ccc5C(c1cccc[n+]1C)=c1ccc([n]12)=C(c1cccc[n+]1C)c1ccc3[n]14` (stereo not shown) [Complex 6], the “effect of pyridinium substitution (in place of bis-sulfonic acids) on uptake, activity, toxicity” value in the data set on human cancer cells is “completely ablated toxicity”.

With `N.N.[Cl][Pt][Cl]` [cisplatin], the IC50 with MDA-MB-231 cells is 46.4 µM and 39 µM.
